The values that follow come from PMC9616048, “Thermal proteome profiling reveals Haemonchus orphan protein HCO_011565 as a target of the nematocidal small molecule UMW-868” (Frontiers in Pharmacology, 2022).

Data set [1] in a line: Cellular toxicity in HepG2 cells (crystal violet). The class given is cell-based, human. The conditions noted are these: human, HepG2 human hepatoma cells; HepG2, 48 h; read-out: Cytotoxicity (48 h) CC50. The protocol: (§1) The toxicities of compounds on cell and mitochondria were assessed to estimate their half-maximal cytotoxic concentrations (CC50) and half-maximal mitotoxic concentrations (MC50), respectively. HepG2 human hepatoma cells were seeded into wells of a 96-well plate at a density of 5.5 × 10^4 cells per well in 80 µl of Dulbecco’s modified eagle medium (DMEM; with GlutaMax™ cat. no. 10566016 or 4 mM L-glutamine cat. no. 11966025; Thermo Fisher Scientific), supplemented with 25 mM D-glucose (cytotoxicity) or D-galactose (mitotoxicity), 10% (v/v) inactivated foetal bovine serum (iFBS), 100 IU/ml of penicillin, 100 μg/ml of streptomycin and 0.25 μg/ml of amphotericin B (designated DMEM*). Cells were allowed to adhere for 16 h at 37°C and 5% (v/v) CO2 at > 90% relative humidity, then, incubated for 48 h with individual, serially-diluted compounds (two-fold serial dilution in DMEM*; […]) in a final volume of 100 µl. For the assessment of toxicity on mitochondria, cells were starved of serum (DMEM* without iFBS) for 4 h prior to the 48 h-incubation with compounds ([Swiss and Will, 2011]; [Kamalian et al., 2015]). Two positive control compounds, doxorubicin (cytotoxic control) and M-666 (mitotoxic control) were each added to three individual wells in each 96-well plate at a single concentration of 10 µM. DMEM* + 0.25% (v/v) DMSO was added to 12 wells in each plate as negative controls. Monepantel and moxidectin were also serially diluted — prepared in the same manner as test compounds — and used as (“non-toxic”) reference compounds. After 48 h of incubation, cell viability was determined by the crystal violet staining method ([Śliwka et al., 2016]). The absorbance (595 nm) of treated cells was normalised with reference to the negative control (100% viability). To determine the CC50 and MC50 values, compound concentrations were log10-transformed, baseline-corrected using a respective positive control (doxorubicin or M-666) and fitted using a variable slope four-parameter equation with a least squares (ordinary) fit model using GraphPad Prism software (v.9.1.2). Compounds and controls were tested in triplicate.

Data set [2] has as its system HepG2 human hepatoma cells. Nature of the data set: Cellular toxicity in HepG2 cells (crystal violet). The class given is cell-based. The conditions noted are these: HepG2 cells, concentrations of up to 100 µM. How it is done: as §1
Data set [3] concerns mitochondria of HepG2 human hepatoma cells. Put plainly: Mitochondrial toxicity in HepG2 cells (galactose medium). Format: cell-based. Particulars: HepG2 mitochondria, concentrations of up to 100 µM. How it is done: as §1
For data set [4], the system named is A. ceylanicum in hamsters. Nature of the data set: In vivo activity against A. ceylanicum in hamsters. Also noted: species or system Ancylostoma ceylanicum. The protocol: (§2) Candidate compound(s) were tested for their effect on other nematode species (He. polygyrus and A. ceylanicum) in infected rodents.
(§3) For He. polygyrus, four NMRI mice (3 weeks old; female) were infected orally with 88 He. polygyrus L3s, and immunosuppressed with 0.25 mg/ml dexamethasone (Sigma-Aldrich), in the drinking water, until 2 days prior to treatment ([Mes et al., 2007]). For A. ceylanicum, four Syrian golden hamsters (3 weeks old; male) were infected orally with 300 L3s without immunosuppression ([Tritten et al., 2012]). Fourteen days or 23 days after the infection, mice and hamsters, respectively, were treated orally with UMW-868 at dosages of 100 mg/kg bw (mice and hamsters). Four each of untreated mice and hamsters served as placebo controls. Six to 7 days post-treatment with the compound, all animals were euthanised by CO2 (hamsters being initially narcotised using isoflurane), and the intestine was dissected. The live adult worms were collected and counted to calculate the worm burden reductions and worm expulsion rates. The worm burden reduction was calculated using the mean number of live worms for the treated group and establishing the differences, in a percentage, with reference to the untreated control group.

The next data set has as its system He. polygyrus in mice. Nature of the data set: In vivo activity against He. polygyrus in mice. The protocol:
as §2
as §3, with “Fourteen days or 23 days after the infection, mice and hamsters, respectively, were treated orally with UMW-868 at dosages of 100 mg/kg bw (mice and hamsters).” left out

Where [5] appears, read: hamster, A. ceylanicum, 100 mg/kg single oral dose.
[6] abbreviates: mouse, He. polygyrus, 200 mg/kg single oral dose.

Broadly, the CC50 is the concentration giving 50% cytotoxicity.

Turning to `CCCc1ccc(-c2nc(-c3cccs3)no2)cc1` [UMW-868, 5-(4-propylphenyl)-3-(2-thienyl)-1,2,4-oxadiazole], the CC50 at 48 h in data set [1] is greater than 50 µM. In addition, the “cytotoxicity (in words)” value in data set [2] is given as “did not display any appreciable cytotoxicity”. Further, the “mitotoxicity (in words)” value in data set [3] is given as “did not display any appreciable cytotoxicity or mitotoxicity”. Besides, the “Mean no. of worms (SD)” value in data set [4] (setting [5]) is listed as 4.8 (1.0); with He. polygyrus in mice (setting [6]), 12.0 (3.5). The “Reduction in infection intensity (%)” value was 48% in data set [4] (setting [5]) and 47% in the data set with He. polygyrus in mice (setting [6]). In addition, the “acute toxicity and pathological changes in treated animals” value in data set [4] (hamsters, single oral dose, post-mortem examination) was “neither evidence of acute toxicity”; in the data set on He. polygyrus in mice (mice, single oral dose, post-mortem examination), “neither evidence of acute toxicity”.
